Source: US20060282906A1, “Non-transgenic rodent model of Alzheimer's disease” (priority 2005, published 2006)
Marks after values point to notes of the source that are not given here.

What was measured:
rats = assay: Barnes circular platform test; assay type: in vivo, rat
Experimental: All rats were anesthetized using 40 mg/kg of pentobarbital (Somnotol; MTC Pharmaceuticals, Cambridge, Ontario) intraperitoneally. Body temperature was maintained at 37° C. Aβ(25-35) (50 nmol in 10 μL of saline) was injected bilaterally into the lateral ventricles. Aβ(25-35) was prepared according to established methods (Sigurdsson, et al. (1997) supra). […] (1997) supra). […] After wound suture, all rats received […] of buprenorphine intramuscularly and were allowed to recover from surgery for 7 days. Learning and memory deficits were assessed using the Barnes circular platform. There are twenty holes evenly located along the border of circular platform with a hidden escape box beneath one of the holes. The circular platform is equipped with colored cues on the surrounding wall. A bright light combined with wind from a fan hung on the ceiling above the platform provides the incentive for the rats to find the hidden box and enter the escape hole. During each trial, the rats were initially placed in the center of the platform under an inverted box, then the box was lifted up and the rat is allowed to find the hole for up to 4 minutes. The latency (time to enter the escape hole) was recorded during the trial. There was a training period (trials 1-14) performed at day −7 to day −1 before surgery (day 0). PDTC or vehicle treatment was given 30 minutes before Aβ(25-35) injections and from days 1 to 7 post-surgery. Spatial memory was then tested on day 8 (trial 15) with the escape hole placed in the same location. Spatial learning was examined by re-testing (re-acquisition) from days 9 to 15 (trials 16-29) with the escape box relocated at […] from the original location. Digital photographs were taken using a light microscope (Leitz Diaplan). […] Also, relative optical density measurements and numbers of stained cells or accumulations were measured in entire brain areas for quantitative analysis and statistically analyzed with ANOVA and Tukey post hoc test with a significance level of P<0.05. […] The staircase data are expressed as the mean±SEM. […] Data are expressed as mean±SEM. […]

Male Wistar rats [1] = assay: Quantitative immunohistochemistry: relative optical density and numbers of stained cells or accumulations; assay type: in vivo, rat; details: Trifusal treatment (brackets)
Experimental: (§1) Male Wistar rats (250 to 300 grams; Charles River, Montreal, Quebec) were divided into 4 groups: intracerebroventricular injections of Aβ(25-35) (BACHEM, Torrance, Calif.); endothelin injections into the right striatum; both Aβ(25-35) and striatal endothelin injections; and sham procedures. The Aβ(25-35) fragment was used to reduce the possibility of rapid coagulation and to allow diffusion of the peptide into the brain.
(§2) All rats were anesthetized using 40 mg/kg of pentobarbital (Somnotol; MTC Pharmaceuticals, Cambridge, Ontario) intraperitoneally. Body temperature was maintained at 37° C. Aβ(25-35) (50 nmol in 10 μL of saline) was injected bilaterally into the lateral ventricles. Aβ(25-35) was prepared according to established methods (Sigurdsson, et al. (1997) supra). Aβ(25-35) (50 nmol in 10 μL of saline at a rate of 1 μL/minute) was injected bilaterally into the lateral ventricles via a stainless-steel cannula (23-gauge; anterior/posterior −0.8, medial/lateral ±1.4, and dorsal/ventral −4.0 below dura). Two endothelin injections (6 pmol in 3 μL of saline), 1 mm apart, were made into the right striatum (Sigurdsson, et al. (1997) supra). Sham procedures involved all the surgical steps without injections of Aβ(25-35) or endothelin. After wound suture, all rats received 40 mg/kg of buprenorphine intramuscularly and were allowed to recover from surgery for 7 days.
(§3) Twenty-one days after surgery, all animals were euthanized via pentobarbital overdose and perfused transaortically first with saline followed by 4% formaldehyde (pH 7.4). The brains were removed and cryoprotected in 30% sucrose for 36 hours at 4° C. Coronal sections (30 pm) were cut using a cryostat.
(§4) Free-floating sections from rat brains (n=5 for each group) were treated with 0.03% hydrogen peroxide and blocked with 3 mL of horse or rabbit serum (VECTASTAIN® Elite, Vector Laboratories, Burlingame, Calif.). The following primary antibodies were diluted in filtered phosphate-buffered saline: APPa4 mouse monoclonal (Chemicon International Inc, Temecula, Calif.; 1:1000), GFAP mouse monoclonal (Sigma-Aldrich, St Louis, Mo.; 1:1000), OX-6 mouse monoclonal (Serotec, Inc., Raleigh, N.C.; 1:1000), Tau-2 mouse monoclonal (Sigma-Aldrich, St Louis, Mo.; 1:10000), NFκB(p65) goat polyclonal (Santa Cruz Biotechnologies, Santa Cruz, Calif.; 1:1000), IL-1β goat polyclonal (Santa Cruz Biotechnologies, Santa Cruz, Calif.; 1:1000), and TNF-α-M18 goat polyclonal (Santa Cruz Biotechnologies, Santa Cruz, Calif.; 1:1000). APP-, Tau-2-, GFAP-, and OX-6-stained sections were incubated with 3 mL of horse biotinylated anti-mouse secondary antibody and horse serum. NFκB(p65), IL-1β, and TNF-α-stained sections were incubated with 3 mL of biotinylated rabbit anti-goat secondary antibody and rabbit serum. Sections were then incubated in 3 mL of avidin-biotin complex followed by 0.05% diaminobenzidine. Sections were washed, air-dried, cleared in xylene, and cover-slipped. Brains to be compared were processed at the same time using the same solutions to reduce variability in immunostaining caused by separate processing.
(§5) Digital photographs were taken using a light microscope (Leitz Diaplan). An investigator was blinded to the identification of the rat sections while analysis was being performed. All immunohistochemical data that were compared was processed at the same time to reduce any variation caused by differences of intensity. A grading scale was based on both observable size and intensity of staining (n=5 for each group). Also, relative optical density measurements and numbers of stained cells or accumulations were measured in entire brain areas for quantitative analysis and statistically analyzed with ANOVA and Tukey post hoc test with a significance level of P<0.05.

Male Wistar rats [2] = assay: Immunohistochemistry of rat brain sections, grading scale of staining size and intensity; assay type: in vivo; set-up: key to Effect of Triflusal on NKκB(p65) immunostaining / Effect of Triflusal on COX-2 immunostaining / Effect of Triflusal on GFAP immunostaining / Effect of Triflusal on OX-6 immunostaining / Effect of Triflusal on APP immunostaining / Effect of Triflusal on Tau-2 immunostaining / Effect of Triflusal on TNFα immunostaining / Effect of Triflusal on Cas-3 immunostaining: −: no effect; ↓: moderate reduction; ↓↓: strong reduction
Experimental: as §1, §2, §3, §4, §5

[3] = Left Hippocampus, Endothelin rats
[4] = Right Hippocampus, Aβ/Endo rats
[5] = Right Hippocampus, Endothelin rats
[6] = Corpus Callosum, Aβ-Endothelin rats
[7] = Hippocampus, Aβ-Endothelin rats
[8] = Hypothalamus, Aβ-Endothelin rats
[9] = Striatum (right), Aβ-Endothelin rats
[10] = Striatum (right), Endothelin rats
[11] = Thalamus (right), Aβ-Endothelin rats
[12] = Thalamus (right), Endothelin rats

S=C(S)N1CCCC1 [PDTC, pyrrolidine dithiocarbamate]
Effect on Aβ(25-35) induced increases in latency (rats; 100 mg/kg 30 minutes before Aβ(25-35) injections and 7 days post-surgery, trial 15 (day 8) vs trial 14 (day −1)): prevented the Aβ(25-35) induced increases in latency | test response (latency) vs Aβ(25-35) group with vehicle treatment (rats; Aβ(25-35) group treated with PDTC, P<0.05, not significantly different from sham groups): significantly less

CC(=O)Oc1cc(C(F)(F)F)ccc1C(=O)O [Triflusal]
APP Accumulation (Male Wistar rats [1]; Left Cortex, Aβ rats): (12.5 ± 2.6)^x | APP Accumulation (Male Wistar rats [1]; Left Cortex, Aβ/Endo rats): 64.5 ± 10.2) | APP Accumulation (Male Wistar rats [1]; Left Cortex, Endothelin rats): (7.3 ± 1.3) | APP Accumulation (Male Wistar rats [1]; Left Cortex, Sham rats): (7.3 ± 2.3) | GFAP Intensity (Male Wistar rats [1]; Left Hippocampus, Aβ rats): (166.8 ± 9.1) | OX6 Intensity (Male Wistar rats [1]; Left Hippocampus, Aβ rats): (109.8 ± 6.8)^a | GFAP Intensity (Male Wistar rats [1]; Left Hippocampus, Aβ/Endo rats): (188.9 ± 4.4) | OX6 Intensity (Male Wistar rats [1]; Left Hippocampus, Aβ/Endo rats): (149.0 ± 7.1) | GFAP Intensity (Male Wistar rats [1]; [3]): (148.8 ± 4.5) | OX6 Intensity (Male Wistar rats [1]; [3]): (106.8 ± 6.4) | GFAP Intensity (Male Wistar rats [1]; Left Hippocampus, Sham rats): (150.8 ± 5.5) | OX6 Intensity (Male Wistar rats [1]; Left Hippocampus, Sham rats): (97.9 ± 2.0) | APP Accumulation (Male Wistar rats [1]; Right Cortex, Aβ rats): (11.0 ± 2.1)^x | APP Accumulation (Male Wistar rats [1]; Right Cortex, Aβ/Endo rats): (85.8 ± 16.1) | APP Accumulation (Male Wistar rats [1]; Right Cortex, Endothelin rats): (13.3 ± 2.1) | APP Accumulation (Male Wistar rats [1]; Right Cortex, Sham rats): (5.0 ± 2.7) | GFAP Intensity (Male Wistar rats [1]; Right Hippocampus, Aβ rats): (164.2 ± 10.1) | OX6 Intensity (Male Wistar rats [1]; Right Hippocampus, Aβ rats): (110.8 ± 4.6)^x | GFAP Intensity (Male Wistar rats [1]; [4]): (188.3 ± 8.2) | OX6 Intensity (Male Wistar rats [1]; [4]): (149.4 ± 7.4)^x | GFAP Intensity (Male Wistar rats [1]; [5]): (150.1 ± 3.6)^x | OX6 Intensity (Male Wistar rats [1]; [5]): (97.3 ± 4.5)^x | GFAP Intensity (Male Wistar rats [1]; Right Hippocampus, Sham rats): (152.5 ± 7.9) | OX6 Intensity (Male Wistar rats [1]; Right Hippocampus, Sham rats): (93.4 ± 1.4) | Effect of Triflusal on APP immunostaining (Male Wistar rats [2]; Corpus Callosum, Aβ rats): ↓↓ | Effect of Triflusal on COX-2 immunostaining (Male Wistar rats [2]; Corpus Callosum, Aβ rats): ↓↓ | Effect of Triflusal on GFAP immunostaining (Male Wistar rats [2]; Corpus Callosum, Aβ rats): ↓↓ | Effect of Triflusal on NKκB(p65) immunostaining (Male Wistar rats [2]; Corpus Callosum, Aβ rats): ↓↓ | Effect of Triflusal on OX-6 immunostaining (Male Wistar rats [2]; Corpus Callosum, Aβ rats): ↓↓ | Effect of Triflusal on TNFα immunostaining (Male Wistar rats [2]; Corpus Callosum, Aβ rats): ↓↓ | Effect of Triflusal on Tau-2 immunostaining (Male Wistar rats [2]; Corpus Callosum, Aβ rats): ↓↓ | Effect of Triflusal on APP immunostaining (Male Wistar rats [2]; [6]): − | Effect of Triflusal on COX-2 immunostaining (Male Wistar rats [2]; [6]): ↓ | Effect of Triflusal on GFAP immunostaining (Male Wistar rats [2]; [6]): − | Effect of Triflusal on NKκB(p65) immunostaining (Male Wistar rats [2]; [6]): ↓ | Effect of Triflusal on OX-6 immunostaining (Male Wistar rats [2]; [6]): ↓ | Effect of Triflusal on TNFα immunostaining (Male Wistar rats [2]; [6]): − | Effect of Triflusal on Tau-2 immunostaining (Male Wistar rats [2]; [6]): − | Effect of Triflusal on GFAP immunostaining (Male Wistar rats [2]; Corpus Callosum, Endothelin rats): − | Effect of Triflusal on APP immunostaining (Male Wistar rats [2]; Cortex, Aβ rats): ↓↓ | Effect of Triflusal on COX-2 immunostaining (Male Wistar rats [2]; Cortex, Aβ rats): ↓↓ | Effect of Triflusal on GFAP immunostaining (Male Wistar rats [2]; Cortex, Aβ rats): − | Effect of Triflusal on NKκB(p65) immunostaining (Male Wistar rats [2]; Cortex, Aβ rats): ↓ | Effect of Triflusal on OX-6 immunostaining (Male Wistar rats [2]; Cortex, Aβ rats): ↓ | Effect of Triflusal on TNFα immunostaining (Male Wistar rats [2]; Cortex, Aβ rats): ↓ | Effect of Triflusal on Tau-2 immunostaining (Male Wistar rats [2]; Cortex, Aβ rats): ↓↓ | Effect of Triflusal on APP immunostaining (Male Wistar rats [2]; Cortex, Aβ-Endothelin rats): − | Effect of Triflusal on COX-2 immunostaining (Male Wistar rats [2]; Cortex, Aβ-Endothelin rats): ↓ | Effect of Triflusal on GFAP immunostaining (Male Wistar rats [2]; Cortex, Aβ-Endothelin rats): − | Effect of Triflusal on NKκB(p65) immunostaining (Male Wistar rats [2]; Cortex, Aβ-Endothelin rats): − | Effect of Triflusal on OX-6 immunostaining (Male Wistar rats [2]; Cortex, Aβ-Endothelin rats): − | Effect of Triflusal on TNFα immunostaining (Male Wistar rats [2]; Cortex, Aβ-Endothelin rats): ↓ | Effect of Triflusal on Tau-2 immunostaining (Male Wistar rats [2]; Cortex, Aβ-Endothelin rats): − | Effect of Triflusal on GFAP immunostaining (Male Wistar rats [2]; Cortex, Endothelin rats): − | Effect of Triflusal on APP immunostaining (Male Wistar rats [2]; Hippocampus, Aβ rats): ↓ | Effect of Triflusal on COX-2 immunostaining (Male Wistar rats [2]; Hippocampus, Aβ rats): ↓ | Effect of Triflusal on GFAP immunostaining (Male Wistar rats [2]; Hippocampus, Aβ rats): − | Effect of Triflusal on NKκB(p65) immunostaining (Male Wistar rats [2]; Hippocampus, Aβ rats): ↓ | Effect of Triflusal on OX-6 immunostaining (Male Wistar rats [2]; Hippocampus, Aβ rats): ↓ | Effect of Triflusal on Tau-2 immunostaining (Male Wistar rats [2]; Hippocampus, Aβ rats): ↓ | Effect of Triflusal on APP immunostaining (Male Wistar rats [2]; [7]): − | Effect of Triflusal on COX-2 immunostaining (Male Wistar rats [2]; [7]): − | Effect of Triflusal on GFAP immunostaining (Male Wistar rats [2]; [7]): − | Effect of Triflusal on NKκB(p65) immunostaining (Male Wistar rats [2]; [7]): − | Effect of Triflusal on OX-6 immunostaining (Male Wistar rats [2]; [7]): − | Effect of Triflusal on Tau-2 immunostaining (Male Wistar rats [2]; [7]): − | Effect of Triflusal on GFAP immunostaining (Male Wistar rats [2]; Hippocampus, Endothelin rats): − | Effect of Triflusal on APP immunostaining (Male Wistar rats [2]; Hypothalamus, Aβ rats): ↓ | Effect of Triflusal on NKκB(p65) immunostaining (Male Wistar rats [2]; Hypothalamus, Aβ rats): ↓↓ | Effect of Triflusal on TNFα immunostaining (Male Wistar rats [2]; Hypothalamus, Aβ rats): ↓↓ | Effect of Triflusal on APP immunostaining (Male Wistar rats [2]; [8]): − | Effect of Triflusal on NKκB(p65) immunostaining (Male Wistar rats [2]; [8]): ↓ | Effect of Triflusal on TNFα immunostaining (Male Wistar rats [2]; [8]): ↓ | Effect of Triflusal on GFAP immunostaining (Male Wistar rats [2]; Striatum (right), Aβ rats): − | Effect of Triflusal on APP immunostaining (Male Wistar rats [2]; [9]): ↓ | Effect of Triflusal on COX-2 immunostaining (Male Wistar rats [2]; [9]): ↓ | Effect of Triflusal on GFAP immunostaining (Male Wistar rats [2]; [9]): − | Effect of Triflusal on NKκB(p65) immunostaining (Male Wistar rats [2]; [9]): ↓ | Effect of Triflusal on OX-6 immunostaining (Male Wistar rats [2]; [9]): ↓ | Effect of Triflusal on TNFα immunostaining (Male Wistar rats [2]; [9]): ↓ | Effect of Triflusal on APP immunostaining (Male Wistar rats [2]; [10]): ↓↓ | Effect of Triflusal on COX-2 immunostaining (Male Wistar rats [2]; [10]): ↓↓ | Effect of Triflusal on Cas-3 immunostaining (Male Wistar rats [2]; [10]): ↓ | Effect of Triflusal on GFAP immunostaining (Male Wistar rats [2]; [10]): − | Effect of Triflusal on NKκB(p65) immunostaining (Male Wistar rats [2]; [10]): ↓ | Effect of Triflusal on OX-6 immunostaining (Male Wistar rats [2]; [10]): ↓↓ | Effect of Triflusal on TNFα immunostaining (Male Wistar rats [2]; [10]): ↓ | Effect of Triflusal on OX-6 immunostaining (Male Wistar rats [2]; Thalamus (right), Aβ rats): − | Effect of Triflusal on TNFα immunostaining (Male Wistar rats [2]; Thalamus (right), Aβ rats): − | Effect of Triflusal on OX-6 immunostaining (Male Wistar rats [2]; [11]): − | Effect of Triflusal on TNFα immunostaining (Male Wistar rats [2]; [11]): − | Effect of Triflusal on OX-6 immunostaining (Male Wistar rats [2]; [12]): − | Effect of Triflusal on TNFα immunostaining (Male Wistar rats [2]; [12]): −
